From patent publication KR20230047805A, “알기나제 유래 펩타이드를 포함하는 심혈관 질환 예방 또는 치료용 조성물” (강원대학교산학협력단, priority 2021, dated 2023)

What was measured:
[1] = molecular target: T1, p32 단백질 (Homo sapiens, UniProt Q07021); assay: Western blot of p32 protein level in peptide-treated HUVECs; type: cell-based; conditions: 12 h
T1 construct: 펩타이드를 처리한 HUVECs을 1X SDS sample buffer로 lysis한 뒤; endogenous in cells; host or cells: HUVECs
T1 sequence (Q07021 74-282): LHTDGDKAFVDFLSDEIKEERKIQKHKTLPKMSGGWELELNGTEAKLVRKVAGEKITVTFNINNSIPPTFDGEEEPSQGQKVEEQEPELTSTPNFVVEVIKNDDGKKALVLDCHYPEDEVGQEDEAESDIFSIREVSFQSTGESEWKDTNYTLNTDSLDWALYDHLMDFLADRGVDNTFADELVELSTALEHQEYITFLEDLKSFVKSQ

[2] = system: CaMKII; assay: Western blot of CaMKII phosphorylation in peptide-treated HUVECs; type: cell-based, human; conditions: peptide 10 μM, 12 h
[3] = system: eNOS; assay: Western blot of eNOS phosphorylation (Ser1177, Thr495) in peptide-treated HUVECs; type: cell-based, human; conditions: peptide 10 μM, 12 h
[4] = molecular target: T1, p32 단백질; assay: Mitochondrial fractionation and immunoblotting of p32 in HUVECs; type: cell-based; conditions: peptide 10 μM, 12 h, mitochondrial fraction
[5] = molecular target: T1, p32 단백질; assay: Co-immunoprecipitation: ubiquitination of p32 in HUVECs; type: cell-based; conditions: peptide 10 μM, 12 h, co-IP with p32 antibody
[6] = molecular target: T2, 알기나제와 p32 단백질의 결합 (Homo sapiens, UniProt Q07021); assay: Co-immunoprecipitation: binding of arginase and p32 in HUVECs; type: cell-based; conditions: peptide 10 μM, 12 h, co-IP with p32 antibody
T2 construct: YDIQY 펩타이드를 처리한 HUVECs을 RIPA buffer를 이용하여 lysis하고; endogenous in cells; host or cells: HUVECs
T2 sequence (Q07021 74-282): T1 sequence (Q07021 74-282)

[7] = molecular target: T1, p32 단백질; assay: p32 protein level under proteasome inhibition (MG132) in HUVECs, Western blot; type: cell-based; conditions: peptide 10 μM, 12 h
[8] = system: ApoE-/-+HCD 생쥐 대동맥; assay: NO measurement (DAF-FM fluorescence) in aorta of atherosclerosis model mice after i.v. peptide; type: in vivo, mouse; conditions: 0.25 mM/kg i.v. every second day, 5 injections in 10 days
[9] = system: ApoE-/-+HCD 생쥐 대동맥; assay: ROS measurement (DHE fluorescence) in aorta of atherosclerosis model mice after i.v. peptide; type: in vivo, mouse; conditions: 0.25 mM/kg i.v. every second day, 5 injections in 10 days
[10] = system: ApoE-/-+HCD 생쥐 대동맥 절편; assay: Vascular tension measurement of aortic segments of atherosclerosis model mice after i.v. peptide; type: in vivo, mouse
[11] = Tail-cuff blood pressure measurement (CODA) in wild-type mice after i.v. peptide; type: in vivo, mouse; conditions: WT mice, 0.25 mM/kg i.v. once daily, 4day

## YDIQY: penta-peptide of SEQ ID NO: 1 designed from the arginase/p32 binding site; p32 inhibiting activity (printed: Tyr Asp Ile Gln Tyr)
[1]; peptide 10 μM, Western blot
  p32 protein level: 감소되었고
[1]; peptide 0.01, 0.1, 1, 10 μM
  cytoplasmic p32 protein level: 농도 의존적으로 감소
[2]
  CaMKII phosphorylation (activity): 증가하였고
[3]
  eNOS Ser1177 (activating site) phosphorylation: 증가되었으며
  eNOS Thr495 (inactivating site) phosphorylation: 감소되는
[4]
  mitochondrial p32 protein level: 유의하게 감소
[5]
  p32 ubiquitination vs control: 증가되어
[6]
  binding of p32 with arginase vs control: 감소되어있는
[7]; with proteasome inhibitor MG132 10 μM, 24 h
  p32 protein level: 감소되지 않는
[7]; without MG132
  p32 protein level: 감소하였지만
[8]
  NO production in aorta: 정상 생쥐 수준만큼 회복
[9]
  ROS production in aorta: 정상 생쥐 수준만큼 회복
[10]; ApoE-/-+HCD mice, 0.25 mM/kg i.v. x5, Ach 10-9~10^-5 M
  Ach-dependent relaxation of aortic segments: 정상 생쥐 수준만큼 회복되는
[10]; ApoE-/-+HCD mice, 0.25 mM/kg i.v. x5, PE 10-9~10^-5 M
  PE-dependent contraction of aortic segments: 정상 생쥐 수준만큼 회복하는
[10]; four groups compared, KCl 60 mM, 20 min
  KCl contraction of aortic segments: 차이가 없음
[10]; four groups compared, SNP 10-10~10^-6 M
  SNP-dependent (endothelium-independent) relaxation of aortic segments: 차이가 없음
[11]
  수축기 (systolic pressure): 유의하게 감소
  이완기 (diastolic pressure): 유의하게 감소
  평균 대동맥압 (mean aortic pressure): 유의하게 감소
